Test results as given in PubChem BioAssay (NCI).
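Growth conditions: 96-well plates. Treatment: test compound, 48 hours, 5 concentrations. Analysis: linear interpolation between bracketing concentrations; unreached endpoints set to highest concentration. GI50 = concentration required for 50% inhibition of growth. TGI is the concentration that stops growth completely.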 Where a SMILES comes first, the peptide text is derived from it. [ ]: non-standard residue; d: D form. The star is where a group is joined. ξ: configuration not given here. Boc = CC(C)(C)OC(=O)*; ξV = CC(C)C(N)C(=O)O; OBn = c1ccc(CO*)cc1

Legend:
Assay in all cases: inhibition of tumour cell growth, NCI panel, 48 h
MOLT-4 leukemia = test system: MOLT-4 leukemia
SF-268 CNS = test system: SF-268 CNS
SNB-19 CNS = test system: SNB-19 CNS
NCI-H23 lung = test system: NCI-H23 lung
CCRF-CEM leukemia = test system: CCRF-CEM leukemia
HL-60(TB) leukemia = test system: HL-60(TB) leukemia
NCI-H522 lung = test system: NCI-H522 lung
HCT-116 colon = test system: HCT-116 colon
OVCAR-3 ovarian = test system: OVCAR-3 ovarian
M14 melanoma = test system: M14 melanoma
786-0 renal = test system: 786-0 renal
HCT-15 colon = test system: HCT-15 colon
HOP-62 NSCLC = test system: HOP-62 NSCLC
NCI-H460 lung = test system: NCI-H460 lung
SR leukemia = test system: SR leukemia
MCF7 breast = test system: MCF7 breast
EKVX NSCLC = test system: EKVX NSCLC
A498 renal = test system: A498 renal
SF-295 CNS = test system: SF-295 CNS
SK-MEL-2 melanoma = test system: SK-MEL-2 melanoma
KM12 colon = test system: KM12 colon
MDA-MB-435 = test system: MDA-MB-435
K-562 leukemia = test system: K-562 leukemia
HS 578T breast = test system: HS 578T breast
HOP-92 NSCLC = test system: HOP-92 NSCLC
T-47D breast = test system: T-47D breast
LOX IMVI melanoma = test system: LOX IMVI melanoma
SW-620 colon = test system: SW-620 colon
DU-145 prostate = test system: DU-145 prostate
OVCAR-4 ovarian = test system: OVCAR-4 ovarian
HT29 colon = test system: HT29 colon
SK-OV-3 ovarian = test system: SK-OV-3 ovarian
SN12C renal = test system: SN12C renal
CAKI-1 renal = test system: CAKI-1 renal
U251 CNS = test system: U251 CNS
RPMI-8226 leukemia = test system: RPMI-8226 leukemia
COLO 205 colon = test system: COLO 205 colon
MALME-3M melanoma = test system: MALME-3M melanoma
NCI/ADR-RES ovarian = test system: NCI/ADR-RES ovarian
UACC-62 melanoma = test system: UACC-62 melanoma
SNB-75 CNS = test system: SNB-75 CNS
IGROV1 ovarian = test system: IGROV1 ovarian
MDA-MB-231 breast = test system: MDA-MB-231 breast
NCI-H226 lung = test system: NCI-H226 lung
OVCAR-5 ovarian = test system: OVCAR-5 ovarian
SK-MEL-5 melanoma = test system: SK-MEL-5 melanoma
SF-539 CNS = test system: SF-539 CNS
HCC-2998 colon = test system: HCC-2998 colon
A549 NSCLC = test system: A549 NSCLC
TK-10 renal = test system: TK-10 renal
PC-3 prostate = test system: PC-3 prostate
UO-31 renal = test system: UO-31 renal
ACHN renal = test system: ACHN renal
SK-MEL-28 melanoma = test system: SK-MEL-28 melanoma

O=c1cc(-c2ccc3c(c2)OCCO3)oc2cc(Cl)ccc12
GI50 (MOLT-4 leukemia): > 100 µM
TGI (MOLT-4 leukemia): > 100 µM
GI50 (SF-268 CNS): 3.37 µM
TGI (SF-268 CNS): > 100 µM
GI50 (SNB-19 CNS): 3.62 µM
TGI (SNB-19 CNS): > 100 µM
GI50 (NCI-H23 lung): 5.67 µM
TGI (NCI-H23 lung): > 100 µM
GI50 (CCRF-CEM leukemia): > 100 µM
TGI (CCRF-CEM leukemia): > 100 µM
GI50 (HL-60(TB) leukemia): > 100 µM
TGI (HL-60(TB) leukemia): > 100 µM
GI50 (NCI-H522 lung): 2.97 µM
TGI (NCI-H522 lung): > 100 µM

CC(C)C(NC(=O)CNC(=O)OC(C)(C)C)C(=O)NCC(=O)OCc1ccccc1 (stereo not drawn) (Boc-Gly-[ξV]-Gly-OBn)
GI50 (HCT-116 colon): 27.3 µg/mL
TGI (HCT-116 colon): 98.5 µg/mL

COc1ccc(-n2cc(-c3ccc(OC)c(OC)c3)[nH]c2=S)cc1Cl
GI50 (OVCAR-3 ovarian): > 100 µM
TGI (OVCAR-3 ovarian): > 100 µM
GI50 (M14 melanoma): > 100 µM
TGI (M14 melanoma): > 100 µM
GI50 (786-0 renal): 52.3 µM
TGI (786-0 renal): > 100 µM
GI50 (MOLT-4 leukemia): 77.4 µM
TGI (MOLT-4 leukemia): > 100 µM
GI50 (HCT-15 colon): > 100 µM
TGI (HCT-15 colon): > 100 µM
GI50 (HOP-62 NSCLC): 30.2 µM
TGI (HOP-62 NSCLC): > 100 µM
GI50 (NCI-H460 lung): > 100 µM
TGI (NCI-H460 lung): > 100 µM
GI50 (SR leukemia): > 100 µM
TGI (SR leukemia): > 100 µM
GI50 (MCF7 breast): > 100 µM
TGI (MCF7 breast): > 100 µM
GI50 (EKVX NSCLC): 41.5 µM
TGI (EKVX NSCLC): > 100 µM
GI50 (A498 renal): > 100 µM
TGI (A498 renal): > 100 µM
GI50 (SF-295 CNS): 41 µM
TGI (SF-295 CNS): > 100 µM
GI50 (SK-MEL-2 melanoma): > 100 µM
TGI (SK-MEL-2 melanoma): > 100 µM
GI50 (KM12 colon): > 100 µM
TGI (KM12 colon): > 100 µM
GI50 (MDA-MB-435): > 100 µM
TGI (MDA-MB-435): > 100 µM
GI50 (K-562 leukemia): > 100 µM
TGI (K-562 leukemia): > 100 µM
GI50 (HS 578T breast): 38.9 µM
TGI (HS 578T breast): > 100 µM
GI50 (HOP-92 NSCLC): 37.3 µM
TGI (HOP-92 NSCLC): > 100 µM
GI50 (T-47D breast): > 100 µM
TGI (T-47D breast): > 100 µM
GI50 (LOX IMVI melanoma): > 100 µM
TGI (LOX IMVI melanoma): > 100 µM
GI50 (SW-620 colon): > 100 µM
TGI (SW-620 colon): > 100 µM
GI50 (DU-145 prostate): > 100 µM
TGI (DU-145 prostate): > 100 µM
GI50 (SF-268 CNS): 58.7 µM
TGI (SF-268 CNS): > 100 µM
GI50 (OVCAR-4 ovarian): > 100 µM
TGI (OVCAR-4 ovarian): > 100 µM
GI50 (SNB-19 CNS): > 100 µM
TGI (SNB-19 CNS): > 100 µM
GI50 (HT29 colon): > 100 µM
TGI (HT29 colon): > 100 µM
GI50 (SK-OV-3 ovarian): > 100 µM
TGI (SK-OV-3 ovarian): > 100 µM
GI50 (SN12C renal): > 100 µM
TGI (SN12C renal): > 100 µM
GI50 (CAKI-1 renal): > 100 µM
TGI (CAKI-1 renal): > 100 µM
GI50 (U251 CNS): 41.1 µM
TGI (U251 CNS): > 100 µM
GI50 (RPMI-8226 leukemia): > 100 µM
TGI (RPMI-8226 leukemia): > 100 µM
GI50 (COLO 205 colon): > 100 µM
TGI (COLO 205 colon): > 100 µM
GI50 (MALME-3M melanoma): > 100 µM
TGI (MALME-3M melanoma): > 100 µM
GI50 (NCI-H23 lung): > 100 µM
TGI (NCI-H23 lung): > 100 µM
GI50 (NCI/ADR-RES ovarian): > 100 µM
TGI (NCI/ADR-RES ovarian): > 100 µM
GI50 (UACC-62 melanoma): > 100 µM
TGI (UACC-62 melanoma): > 100 µM
GI50 (SNB-75 CNS): 4.75 µM
TGI (SNB-75 CNS): 21 µM
GI50 (IGROV1 ovarian): > 100 µM
TGI (IGROV1 ovarian): > 100 µM
GI50 (CCRF-CEM leukemia): > 100 µM
TGI (CCRF-CEM leukemia): > 100 µM
GI50 (MDA-MB-231 breast): 61.4 µM
TGI (MDA-MB-231 breast): > 100 µM
GI50 (NCI-H226 lung): > 100 µM
TGI (NCI-H226 lung): > 100 µM
GI50 (HCT-116 colon): > 100 µM
TGI (HCT-116 colon): > 100 µM
GI50 (OVCAR-5 ovarian): > 100 µM
TGI (OVCAR-5 ovarian): > 100 µM
GI50 (SK-MEL-5 melanoma): > 100 µM
TGI (SK-MEL-5 melanoma): > 100 µM
GI50 (SF-539 CNS): 39.4 µM
TGI (SF-539 CNS): > 100 µM
GI50 (HCC-2998 colon): > 100 µM
TGI (HCC-2998 colon): > 100 µM
GI50 (A549 NSCLC): > 100 µM
TGI (A549 NSCLC): > 100 µM
GI50 (TK-10 renal): > 100 µM
TGI (TK-10 renal): > 100 µM
GI50 (HL-60(TB) leukemia): > 100 µM
TGI (HL-60(TB) leukemia): > 100 µM
GI50 (PC-3 prostate): > 100 µM
TGI (PC-3 prostate): > 100 µM
GI50 (UO-31 renal): > 100 µM
TGI (UO-31 renal): > 100 µM
GI50 (NCI-H522 lung): > 100 µM
TGI (NCI-H522 lung): > 100 µM
GI50 (ACHN renal): > 100 µM
TGI (ACHN renal): > 100 µM
GI50 (SK-MEL-28 melanoma): > 100 µM
TGI (SK-MEL-28 melanoma): > 100 µM
